# Laboratory results published in US20250051327A1, “MALT-1 MODULATORS” (EXSCIENTIA AI LIMITED, priority 2020, published 2025).
# System: IL-2 secretion by human effector memory T cells (TEM)
# Assay: Effector memory T cells IL-2 release assay
# Assay type: cell-based
# Settings: T-cell; human CD4+ effector memory T cells, CD3/CD28 bead stimulation, 24 h; read-out: CD4TC IL2 IC50
# Experimental: Effector Memory T Cells IL-2 Release Assay
# Test compound-mediated inhibition of NFκB signalling in T cells was assessed by quantification of the IL-2 secretion by human effector memory T cells (TEM) upon treatment and stimulation. Human TEM cells were isolated from buffy coats of healthy donors obtained from the French blood bank. First, peripheral blood mononuclear cells (PBMC) were purified from buffy coats diluted 1:1 with DPBS (Gibco, cat #14190-094) by Pancoll (PAN BIOTECH, cat #P04-60500) density gradient centrifugation at 400×g for 20 minutes. TEM cells were further enriched by negative immuno-magnetic cell sorting using a human CD4+ Effector Memory T Cell Isolation Kit (Miltenyi, cat #130-094-125) according to the manufacturer's instructions. Aliquots of 3×10E6 purified TEM cells were kept frozen in Cryo-SFM medium (PromoCell, cat #C-29912) in gas phase nitrogen until used. Cell purity was verified by flow cytometry analysis of 200 000 PFA-fixed cells previously labelled with monoclonal antibodies anti-CD4-PerCP-Cy5.5 (BD Pharmigen, cat #332772), anti-CD8-V500 (BD Biosciences, cat #561617), anti-CD14-Pacific Blue (Biolegend, cat #325616), anti-CD45 RA-FITC (Biolegend, cat #304106) and anti-CCR7-APC (in CD4+ Effector Memory T Cell Isolation Kit, Miltenyi, cat #130-094-125).
# TEM cells were resuspended in complete RPMI medium composed of: RPMI 1640 (Gibco, cat #31870-025), 10% heat inactivated fetal bovine serum (Sigma, cat #F7524), 2 mM GlutaMAX (Gibco, cat #35050-038), 1 mM sodium pyruvate 100× (Gibco, cat #11360-039), 1% MEM non-essential amino acids solution (Gibco, cat #11140-035) and 100 U/mL penicillin, 100 μg/mL streptomycin (Sigma-Aldrich, cat #11074440001). 5,000 cells per well were plated onto flat clear bottom 384 well plates (Corning, cat #3770). 5,000 Dynabeads Human T-Activator CD3/CD28 (Gibco, cat #11132D) were added to each well for cell stimulation. Finally, 10 doses of test compound, originally prepared in DMSO by serial semi-log step dilution, were also added to cells in triplicate wells. Final DMSO concentration in wells was 0.1% in a total volume of 100 μL complete medium. Plates were incubated for 24 h at 37° C. in 5% CO2 atmosphere. After incubation, cell suspensions were centrifuged at 400×g and culture supernatants were recovered and stored at −80° C. Cell viability was assessed by flow cytometry after staining the cells with Fixable Viability Dye eFluor 780 (Invitrogen, cat #65-0865-14). IL-2 levels were determined in cell supernatants using an HTRF human IL-2 detection kit (Cisbio, cat #62HIL02PEH). IL-2 data at the different compound doses were fitted to a 4-parameter logistic curve to determine IC50 values, corresponding to the compound concentration leading to 50% reduction of the maximal IL-2 levels observed in each experiment. Viability data were analysed similarly to exclude cytotoxicity as a cause of IL-2 decrease (see Table 1).
row,Structure (SMILES),IC50 [nM]
1,"C[C@H]1CCN(c2ccc([C@H](N(C)C(=O)[C@H]3CC[S@@](=N)(=O)CC3)C(F)(F)F)cc2)c2cnc3cc(F)nn3c21 (relative stereo) [CPD0074554, (1rel r, 4rel r)1-imino-N-methyl-1-oxo-N-[(1S)-2,2,2-trifluoro-1-[4-[(13 rel S)-4-fluoro-13-methyl-2,3,7,10-tetrazatricyclo[7.4.0.0^2,6]trideca-1(9),3,5,7-tetraen-10-yl]phenyl]ethyl]thiane-4-carboxamide]",170
2,"COc1ccc2ncc(Nc3ccc([C@H](N(C)C(=O)[C@H]4CCC(=O)N4)C(F)(F)F)cc3)c([C@H](C)OC)c2n1 (relative stereo) [CPD0075581, (2 rel R)-N-methyl-5-oxo-N-[(1S)-2,2,2-trifluoro-1-[4-[6-methoxy-4-[(1 rel S)-1-methoxyethyl]-1,5-naphthyridin-3-yl]amino]phenyl]ethyl]pyrrolidine-2-carboxamide]",29
3,COc1ccc2ncc(Nc3ccc([C@H](N(C)C(=O)C4CCS(=O)(=O)CC4)C(F)(F)F)cn3)c(C(C)OC)c2n1 (stereo partly drawn) [CPD0019007],115
4,"CN(C(=O)C1CCS(=O)(=O)CC1)[C@@H](c1ccc(N2CCCc3c2cnc2cc(Cl)nn32)nc1)C(F)(F)F [CPD0019212, N-[(1S)-1-(6-{4-chloro-2,3,7,10-tetraazatricyclo[7.4.0.0^2,6]trideca-1(9),3,5,7-tetraen-10-yl}pyridin-3-yl)-2,2,2-trifluoroethyl]-N-methyl-1,1-dioxo-1λ^6-thiane-4-carboxamide]",452
5,"CN(C(=O)C1CCS(=O)(=O)CC1)[C@@H](c1ccc(N2CC3(CC3)Cc3c2cnc2cc(Cl)nn32)cc1)C(F)(F)F [CPD0022148, N-[(1S)-1-(4-{4′-chloro-2′,3′,7′,10′-tetraazaspiro[cyclopropane-1,12′-tricyclo[7.4.0.0^2,6]tridecane]-1′(9′),3′,5′,7′-tetraen-10′-yl}phenyl)-2,2,2-trifluoroethyl]-N-methyl-1,1-dioxo-1λ^6-thiane-4-carboxamide]",116
6,"COC[C@]1(C)CCN(c2ccc([C@H](N(C)C(=O)C3CCS(=O)(=O)CC3)C(F)(F)F)cc2)c2cnc3cc(Cl)nn3c21 [CPD0073140, N-[(1S)-1-[4-[(13rel-R)-4-chloro-13-(methoxymethyl)-13-methyl-2,3,7,10-tetrazatricyclo[7.4.0.0^2,6]trideca-1(9),3,5,7-tetraen-10-yl]phenyl]-2,2,2-trifluoro-ethyl]-N-methyl-1,1-dioxo-1λ^6-thiane-4-carboxamide]",192
7,"CN(C(=O)[C@@H]1CCN(C(=O)CC#N)C1)[C@@H](c1ccc(N2CCCc3c2cnc2cc(Cl)nn32)cc1)C(F)(F)F [CPD0073190, (3rel-R)-N-[(1S)-1-[4-(4-chloro-2,3,7,10-tetrazatricyclo[7.4.0.0^2,6]trideca-1(9),3,5,7-tetraen-10-yl)phenyl]-2,2,2-trifluoro-ethyl]-1-(2-cyanoacetyl)-N-methyl-pyrrolidine-3-carboxamide]",239
8,"CN(C(=O)[C@H]1CCN(C(=O)CC#N)C1)[C@@H](c1ccc(N2CCCc3c2cnc2cc(Cl)nn32)cc1)C(F)(F)F [CPD0073191, (3rel-S)-N-[(1S)-1-[4-(4-chloro-2,3,7,10-tetrazatricyclo[7.4.0.0^2,6]trideca-1(9),3,5,7-tetraen-10-yl)phenyl]-2,2,2-trifluoro-ethyl]-1-(2-cyanoacetyl)-N-methyl-pyrrolidine-3-carboxamide]",148
9,"CN(C(=O)[C@H]1C[C@@H]([S@@+](C)(=N)[O-])C1)[C@@H](c1ccc(N2CCCc3c2cnc2cc(Cl)nn32)cc1)C(F)(F)F [CPD0073223, (1R,3s)-N-[(1S)-1-(4-{4-chloro-2,3,7,10-tetraazatricyclo[7.4.0.0^2,6]trideca-1(9),3,5,7-tetraen-10-yl}phenyl)-2,2,2-trifluoroethyl]-3-[(S)-imino(methyl)oxo-λ^6-sulfanyl]-N-methylcyclobutane-1-carboxamide]",172

# The remaining compounds from weak to strong by IC50, led by results:
row,IC50 [nM],Structure (SMILES)
1,183,"CN(C(=O)[C@H]1CC[S@](=N)(=O)CC1)[C@@H](c1ccc(N2CC(C)(C)Cc3c2cnc2cc(Cl)nn32)cc1)C(F)(F)F [CPD0073497, (1rel r,4rel r)-N-[(1S)-1-(4-{4-chloro-12,12-dimethyl-2,3,7,10-tetraazatricyclo[7.4.0.0^2,6]trideca-1(9),3,5,7-tetraen-10-yl}phenyl)-2,2,2-trifluoroethyl]-1-imino-N-methyl-1-oxo-1λ^6-thiane-4-carboxamide]"
2,162,"C[C@H]1CCN(c2ccc([C@H](N(C)C(=O)[C@H]3CC[S@](=N)(=O)CC3)C(F)(F)F)cc2)c2cnc3cc(F)nn3c21 (relative stereo) [CPD0074553, (1rel s, 4rel s)1-imino-N-methyl-1-oxo-N-[(1S)-2,2,2-trifluoro-1-[4-[(13 rel S)-4-fluoro-13-methyl-2,3,7,10-tetrazatricyclo[7.4.0.0^2,6]trideca-1(9),3,5,7-tetraen-10-yl]phenyl]ethyl]thiane-4-carboxamide]"
3,112,"CN(C(=O)C1CCS(=O)(=O)CC1)[C@@H](c1ccc(N2CCC3(CC3)c3c2cnc2cc(Cl)nn32)nc1)C(F)(F)F [CPD0021660, N-[(1S)-1-(6-{4′-chloro-2′,3′,7′,10′-tetraazaspiro[cyclopropane-1,13′-tricyclo[7.4.0.0^2,6]tridecane]-1′(9′),3′,5′,7′-tetraen-10′-yl}pyridin-3-yl)-2,2,2-trifluoroethyl]-N-methyl-1,1-dioxo-1λ^6-thiane-4-carboxamide]"
4,108,"COc1ccc2ccc(Nc3ccc([C@H](N(C)C(=O)C4CCS(=O)(=O)CC4)C(F)(F)F)cc3)cc2n1 [CPD0019078, N-methyl-1,1-dioxo-N-[(1S)-2,2,2-trifluoro-1-{4-[(2-methoxyquinolin-7-yl)amino]phenyl}ethyl]-16-thiane-4-carboxamide]"
5,68,"COc1ccc2ncc(Nc3ccc([C@H](N(C)C(=O)[C@H]4CNC(=O)C4)C(F)(F)F)cc3)c([C@H](C)OC)c2n1 (relative stereo) [CPD0074562, (3 rel R)-N-methyl-5-oxo-N-[(1S)-2,2,2-trifluoro-1-[4-[[6-methoxy-4-[(1 rel S)-1-methoxyethyl]-1,5-naphthyridin-3-yl]amino]phenyl]ethyl]pyrrolidine-3-carboxamide]"
6,65,"COC[C@@]1(C)CCN(c2ccc([C@H](N(C)C(=O)C3CCS(=O)(=O)CC3)C(F)(F)F)cc2)c2cnc3cc(Cl)nn3c21 [CPD0073139, N-[(1S)-1-[4-[(13rel-S)-4-chloro-13-(methoxymethyl)-13-methyl-2,3,7,10-tetrazatricyclo[7.4.0.0^2,6]trideca-1(9),3,5,7-tetraen-10-yl]phenyl]-2,2,2-trifluoro-ethyl]-N-methyl-1,1-dioxo-1λ^6-thiane-4-carboxamide]"
7,37,"CN(C(=O)C1CCS(=O)(=O)CC1)[C@@H](c1ccc(N2CCC3(CC3)c3c2cnc2cc(Cl)nn32)cc1)C(F)(F)F [CPD0019590, N-[(1S)-1-(4-{4′-chloro-2′,3′,7′, 10′-tetraazaspiro[cyclopropane-1,13′-tricyclo[7.4.0.0^2,6]tridecane]-1′(9′),3′,5′,7′-tetraen-10′-yl}phenyl)-2,2,2-trifluoroethyl]-N-methyl-1,1-dioxo-1λ^6-thiane-4-carboxamide]"
8,35,"COc1ccc2ncc(Nc3ccc([C@H](N(C)C(=O)[C@@H]4CCC(=O)N4)C(F)(F)F)cc3)c([C@H](C)OC)c2n1 (relative stereo) [CPD0075580, (2 rel S)-N-methyl-5-oxo-N-[(1S)-2,2,2-trifluoro-1-[4-[[6-methoxy-4-[(1 rel S)-1-methoxyethyl]-1,5-naphthyridin-3-yl]amino]phenyl]ethyl]pyrrolidine-2-carboxamide]"
9,27,"COc1ccc2ncc(Nc3ccc([C@H](N(C)C(=O)C4CCN(C(C)=O)CC4)C(F)(F)F)cc3)c([C@H](C)OC)c2n1 (relative stereo) [CPD0074559, 1-acetyl-N-methyl-N-[(1S)-2,2,2-trifluoro-1-[4-[6-methoxy-4-[(1 rel S)-1-methoxyethyl]-1,5-naphthyridin-3-yl]amino]phenyl]ethyl]piperidine-4-carboxamide]"
